Assay results as given in patent US20120034193A1, “TREATMENT OF NEUROTROPHIC FACTOR MEDIATED DISORDERS” (priority 2009, published 2012).

How the values were obtained:
[1] = system: pmn mice; conditions: literature; CNTF i.p. CNTF-secreting cells, Xaliproden oral from birth, CGP 3466B oral at onset; cited from earlier work
[2] = system: BDNF mRNA; experiment: BDNF mRNA expression in rat cortical neurones under basal conditions (rt RT-PCR); format: cell-based; conditions: 0.5 mM
Experimental: (§1) Rat cortical neurones were cultured by modification of a method previously described (Singer, et al., Neuroscience Letters, 1996, 212, pp. 13-16). Twelve days after the start of culturing, sarsasapogenin (30 nM), smilagenin (30 nM), 4-methylcatechol (0.5 mM), an inducer of NGF and BDNF release (Saporito et al., Experimental Neurology., 1993, 123, pp. 295-302; Nitta et al., Journal of Pharmacology and Experimental Therapeutics, 1999, 291, pp. 1276-1283) or vehicle (dimethyl sulfoxide, DMSO, 0.25%) were added for 1, 3 or 6 h. After incubation the total messenger ribonucleic acid (mRNA) was quantified using real time reverse transcription-polymerase chain reaction (rt RT-PCR).

[3] = system: trkB mRNA; experiment: trkB mRNA expression in rat cortical neurones under basal conditions (rt RT-PCR); format: cell-based; conditions: 0.5 mM
Experimental: as §1

[4] = system: C57b1/6 RJ mice; experiment: Sciatic nerve crush model; format: in vivo, Mouse; conditions: 10 μg/kg/day i.p.; nerve crush alone 109.10 ± 2.65
Text: The sciatic nerve crush model is a well characterised reversible model for motor neurone disease and post-traumatic nerve injuries (McMahon and Priestley, Current Opinion in Neurobiology, 1995, 5, pp. 616-624). The nerve damage is produced by mechanical pressure using haemostatic forceps, applied twice, 5 mm proximal to the trifurcation of the right sciatic nerve of these mice. […] The loss of nerve function recovers progressively over a 4-5 week period after the mechanical insult.
4-Methylcatechol (10 μg/kg/day, i.p.) was used as a positive control (Kaechi et al., Journal of Phamacology and Experimental Therapeutics, 1995, 272, pp. 1300-1304).
C57b1/6 RJ mice were anaesthetised with ketamine chlorhydrate (60 mg/kg, i.p.). The sciatic nerve was surgically exposed at mid thigh level and crushed at 5 mm proximal to the trifurcation of the sciatic nerve. The nerve was crushed twice for 30 s with a haemostatic forceps with a 90-degree rotation between each crush. […] The loss of nerve function recovered progressively over a 4-5 week period after mechanical insult. Electromyographic recordings were assessed as described above.

[5] = system: rat primary cortical neurones; experiment: Inhibition of induced neurite outgrowth by K252a or PD98059; format: cell-based
Experimental: Cortical neurones were cultured as detailed above. Neurones were exposed to vehicle (DMSO, 0.25%) or K252a (100 nM) for 1 h. After 1 h, vehicle, sarsasapogenin, smilagenin (30 nM) or BDNF (1.85 nM) was added to the medium in the maintained presence of K252a. Following 24 h exposure to sarsasapogenin or smilagenin (30 nM), vehicle (DMSO, 0.25%) or BDNF (1.85 nM), the neurones were washed using phosphate-buffered saline (PBS) and fixed in glutaraldehyde (2.5%) in PBS. Photographs of 40-60 neurones expressing neurites were taken with a camera fixed on a microscope (objective ×20, Nikon). The neurite length was measured by an analysis of the photographs.
Cortical neurones were cultured as detailed above. Neurones were exposed to vehicle (DMSO, 0.25%) or PD98059 (10 μM) for 1 h. After 1 h, vehicle, smilagenin (30 nM) or BDNF (1.85 nM) was added to the medium in the maintained presence of PD98059. Following 24 h exposure to smilagenin (30 nM), vehicle (DMSO, 0.25%) or BDNF (1.85 nM), the neurones were washed using PBS and fixed in glutaraldehyde (2.5%) in PBS. Photographs of 40-60 neurones expressing neurites were taken with a camera fixed on a microscope (objective ×20, Nikon). The neurite length was measured by an analysis of the photographs.

[6] = system: rat primary cortical neurones; experiment: Pre-treatment against glutamate-induced damage (LDH) in cortical neurones; format: cell-based; conditions: 24 h before and 24 h after glutamate 100 μM 10 min
Experimental: Exposure of rat primary cortical neurones to glutamate increases lactate dehydrogenase (LDH) activity measured 24 h after glutamate exposure, indicating significant neuronal damage. Rat cortical neurones were cultured by modification of a method previously described (Singer, et al., Neuroscience Letters, 1996, 212, pp. 13-16). On day 10 of culture, the medium was changed to a serum-free defined medium. On day 12, the cultures were washed and placed for 24 h in fresh medium containing test compound or vehicle (DMSO, 0.25%). On day 13 neurones were exposed to glutamate (100 μM; 10 min) at 37° C. The cultures were then washed with, and placed in, fresh medium supplemented with test compound or vehicle for a further 24 h before LDH was measured. Neuronal damage was assessed by measuring LDH activity in the media at 24 h after glutamate exposure.

[7] = system: Rat cortical neurones; experiment: Neuritogenesis in cortical neurones; format: cell-based; conditions: 3 nM, 24 h
Experimental: Rat cortical neurones were cultured by modification of a previously described method (Singer, et al., Neuroscience Letters, 1996, 212, pp. 13-16). Cells were cultured with sarsasapogenin, smilagenin, vehicle (DMSO 0.25%), GDNF, BDNF or NGF for 24 h. For each group, 15 pictures showing neurones displaying neurites were selected at random in each field, and for each neurone the longest neurite was measured. The neurite number was measured by counting the number of neurones displaying neurites, the number of neurones not displaying neurites and the number of total neurones in each field. Six fields per well were examined.
The results are shown in Table 15 below, expressed as the number of neurones with neurites per field as a percentage of the total number of neurones per field.

[8] = system: Rat cortical neurones; experiment: Neuronal survival and neurite outgrowth of cortical neurones cultured in the absence of serum; format: cell-based; conditions: 3 nM, one day, no serum
Experimental: Rat cortical neurones were cultured following the method described above.
The test compounds were added for 24 h.
Rat cortical neurones were exposed to sarsasapogenin, smilagenin (30 nM) or vehicle (DMSO, 0.25%) in the absence FBS or FCS for one day. Cortical neurones were stained using a monoclonal antibody anti β-tubulin diluted and an anti mouse Immunoglobulin G diluted. These antibodies stained neurone cell bodies (quantifying the neuroprotective effect) and neurites (quantifying the neurotrophic effect). An epifluorecence microscope (magnification ×20) with a camera took 2 pictures per well (10 pictures per condition). Analyses of the number of cells labelled with anti β-tubulin antibodies and of the total number of cells was performed using LUCIA 6.0 software.

[9] = system: Rat spinal motor neurones; experiment: Neuronal survival and neurite outgrowth in spinal motor neurones; format: cell-based; conditions: 1.85 nM, 3 days
Experimental: Rat spinal motor neurones were prepared according to a previously described method (Martinou et al, Neuron, 8, 737-744, 1992). Following 3 days of culturing with sarsasapogenin, smilagenin, vehicle (DMSO, 0.25%), Xaliproden, or BDNF, spinal cord motor neurones were washed twice in PBS, fixed in a cold solution of alcohol (95%) and acetic acid (5%) for 5 min and then rinsed 3 times in PBS. Neurones were stained using a monoclonal antibody anti β-tubulin and an anti mouse Immunoglobulin G. These antibodies stained neurone cell bodies (quantifying the neuroprotective effect) and neurites (quantifying the neurotrophic effect). The cell nuclei were stained by a fluorescent marker. After 1 h of incubation, cells were washed 3 times in PBS. […] A series of pictures were taken using a camera controlled by computer software. All the images were taken under the same conditions. Analyses of the number of cells labelled with anti β-tubulin antibodies and of the total number of cells (number of stained nuclei) were performed using LUCIA 6.0 software.

[10] = system: Rat spinal motor neurones; experiment: Reversal of glutamate-induced damage in spinal motor neurones; format: cell-based; conditions: 3 nM for 48 h after glutamate 4 μM 10 min
Experimental: The rat spinal motor neurones were prepared as detailed above. On day 10, the medium was removed and the cultures exposed to glutamate (4 μM) for 10 min at 37° C. in 5% CO2/95% air atmosphere in defined medium. After the glutamate exposure, cultures were washed with DMEM at 37° C. then placed in fresh culture medium containing sarsasapogenin, smilagenin, vehicle or BDNF. After 48 h, the extent of motor neurone damage was determined as detailed above. This Example develops the work reported in Example 8 of PCT patent application No. WO-A-03/082893.

Cc1c(C)c2c(c(C)c1O)CC[C@@](C)(C(=O)N1CCN(c3ccc(N=C(N)c4cccs4)cc3)CC1)O2 [BN 80933]
Increase of survival time / lifespan of pmn mice [1]: 40%

Cc1ccc(O)c(O)c1 [4-Methylcatechol, reference compound]
BDNF mRNA, % increase above control ([2]; 1 h): No increase
BDNF mRNA, % increase above control ([2]; 3 h): No increase
BDNF mRNA, % increase above control ([2]; 6 h): 92%
trkB mRNA, % increase above control ([3]; 1 h): No increase
trkB mRNA, % increase above control ([3]; 3 h): No increase
trkB mRNA, % increase above control ([3]; 6 h): No increase
Degenerated fibres (% of control) [4]: −7.48 ± 1.62 % of control

COc1cccc(-c2cc(=O)c3ccccc3o2)c1N [PD98059, reference compound]
Neurite length (% of control) ([5]; PD98059 10 μM alone (control with PD98059)): 96.08 ± 2.47 % of control

C#CCN(C)CC1=Cc2ccccc2Oc2ccccc21.O=C(O)/C=C\C(=O)O [CGP 3466B]
Increase of survival time / lifespan of pmn mice [1]: 57%

C[C@@H]1CC[C@@]2(OC1)O[C@H]1C[C@H]3[C@@H]4CC=C5C[C@@H](O)CC[C@]5(C)[C@H]4CC[C@]3(C)[C@H]1[C@@H]2C [diosgenin, reference compound]
Neuronal survival (% of control) ([6]; 3 nM): 69.43 ± 1.76 % of control
Neuronal survival (% of control) ([6]; 10 nM): 66.51 ± 5.13 % of control
Neuronal survival (% of control) ([6]; 30 nM): 68.98 ± 5.39 % of control
Neuronal survival (% of control) ([6]; 100 nM): 70.95 ± 5.03 % of control
Neuronal survival (% of control) ([6]; 300 nM): 75.02 ± 2.68 % of control

COC(=O)[C@@]1(O)C[C@H]2O[C@]1(C)n1c3ccccc3c3c4c(c5c6ccccc6n2c5c31)C(=O)NC4 [K252a, reference compound]
Neurite length (% of control) ([5]; K252a 100 nM alone (control with K252a)): 95.22 ± 3.10 % of control

B1: CNTF: ciliary neurotrophic factor; i.p. administration of CNTF-secreting cells (protein, UniProt P26441 1-200, looked up)
Ciliary neurotrophic factor: MAFTEHSPLTPHRRDLCSRSIWLARKIRSDLTALTESYVKHQGLNKNINLDSADGMPVASTDQWSELTEAERLQENLQAYRTFHVLLARLLEDQQVHFTPTEGDFHQAIHTLLLQVAAFAYQIEELMILLEYKIPRNEADGMPINVGDGGLFEKKLWGLKVLQELSQWTVRSIHDLRFISSHQTGIPARGSHYIANNKKM
modifications: secreted by cells
Increase of survival time / lifespan of pmn mice [1]: 40%

B2: BDNF: brain-derived neurotrophic factor (protein, UniProt P23560 19-247, looked up)
Neurotrophic factor BDNF …: APMKEANIRGQGGLAYPGVRTHGTLESVNGPKAGSRGLTSLADTFEHVIEELLDEDQKVRPNEENNKDADLYTSRVMLSSQVPLEPPLLFLLEEYKNYLDAANMSMRVRRHSDPARRGELSVCDSISEWVTAADKKTAVDMSGGTVTVLEKVPVSKGQLKQYFYETKCNPMGYTKEGCRGIDKRHWNSQCRTTQSYVRALTMDSKKRIGWRFIRIDTSCVCTLTIKRGR
Neurite length (% of control) [7]: 162.34 ± 5.91 % of control
Neurones displaying neurites (%) ([7]; control 39.35 ± 2.06): 48.06 ± 2.17 %
Neurite outgrowth (% of control) [8]: 146.84 ± 9.27 % of control
Neuronal survival (% of control) [8]: 162.75 ± 5.61 % of control
Neurite outgrowth (% of control) [9]: 176.91 ± 7.25 % of control
Neuronal survival (% of control) [9]: 126.15 ± 1.60 % of control
Neurite length (% of control) ([5]; 1.85 nM, 24 h, no inhibitor): 125.30 ± 5.80^++++ % of control
Neurite length (% of control) ([5]; 1.85 nM, 24 h, with K252a (100 nM)): 87.31 ± 2.20 % of control
Neurite length (% of control) ([5]; 1.85 nM, 24 h, with PD98059 (10 μM)): 99.07 ± 5.15 % of control
Neuronal survival (% of control) [10]: 106.60 ± 6.14 % of control
